Measured values taken from the NIST ThermoML archive (doi:10.1016/j.jct.2011.01.014).

How the values were obtained:
[1] = 101 kPa, Liquid; for mass density: Vibrating tube method; for speed of sound: sound velocity cell
[2] = xn = mol fraction of the nth substance listed; details: 101 kPa, Liquid, x2 = 0; for mass density: Vibrating tube method; for speed of sound: sound velocity cell

CO [methanol]
[1]
Details	mass density [kg/m3]	speed of sound [m/s]
288.15 K	796.694	1136.3
290.65 K	793.768	1127.7
293.15 K	791.418	1119.5
295.65 K	789.066	1111.3
298.15 K	786.71	1103
300.65 K	784.349	1094.7
303.15 K	781.983	1086.5
305.65 K	779.612	1078.3
308.15 K	777.234	1070.2
310.65 K	774.851	1062.1
313.15 K	772.458	1054
315.65 K	770.058	1045.9
318.15 K	767.647	1037.9
320.65 K	765.229	1029.9
323.15 K	762.809	1022

CO [methanol] + CC(=O)[O-].[NH3+]CCO
[2]
Details	mass density [kg/m3]	speed of sound [m/s]
288.15 K	796.694	1136.3
290.65 K	793.768	1127.7
293.15 K	791.418	1119.5
295.65 K	789.066	1111.3
298.15 K	786.71	1103
300.65 K	784.349	1094.7
303.15 K	781.983	1086.5
305.65 K	779.612	1078.3
308.15 K	777.234	1070.2
310.65 K	774.851	1062.1
313.15 K	772.458	1054
315.65 K	770.058	1045.9
318.15 K	767.647	1037.9
320.65 K	765.229	1029.9
323.15 K	762.809	1022

O [water]
[1]
Details	mass density [kg/m3]	speed of sound [m/s]
290.65 K	998.68	1474.7
295.65 K	997.65	1489.9
300.65 K	996.37	1503.4
305.65 K	994.86	1515.1
310.65 K	993.15	1525
313.15 K	–	1529.3
315.15 K	991.24	–
315.65 K	–	1533.2
318.15 K	–	1536.6
320.65 K	989.15	1539.6
323.15 K	988.04	1542.1

O [water] + CC(=O)[O-].[NH3+]CCO
[2]
Details	mass density [kg/m3]	speed of sound [m/s]
290.65 K	998.68	1474.7
295.65 K	997.65	1489.9
300.65 K	996.37	1503.4
305.65 K	994.86	1515.1
310.65 K	993.15	1525
313.15 K	–	1529.3
315.15 K	991.24	–
315.65 K	–	1533.2
318.15 K	–	1536.6
320.65 K	989.15	1539.6
323.15 K	988.04	1542.1
